Experimental data as given in PubChem BioAssay (NCI).
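Cultured in 96-well plates, cells were exposed to test compound for 48 hours across five concentrations. TGI: total growth inhibition.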

Key:
Experiment in all cases: NCI tumour cell line growth inhibition, 48 h
T-47D breast = tested on: T-47D breast
U251 CNS = tested on: U251 CNS
SNB-19 CNS = tested on: SNB-19 CNS
NCI/ADR-RES ovarian = tested on: NCI/ADR-RES ovarian
HOP-62 NSCLC = tested on: HOP-62 NSCLC
K-562 leukemia = tested on: K-562 leukemia
PC-3 prostate = tested on: PC-3 prostate
IGROV1 ovarian = tested on: IGROV1 ovarian
COLO 205 colon = tested on: COLO 205 colon
OVCAR-4 ovarian = tested on: OVCAR-4 ovarian
M14 melanoma = tested on: M14 melanoma
DU-145 prostate = tested on: DU-145 prostate
UACC-62 melanoma = tested on: UACC-62 melanoma
OVCAR-5 ovarian = tested on: OVCAR-5 ovarian
HT29 colon = tested on: HT29 colon
OVCAR-8 ovarian = tested on: OVCAR-8 ovarian
ACHN renal = tested on: ACHN renal
HL-60(TB) leukemia = tested on: HL-60(TB) leukemia
OVCAR-3 ovarian = tested on: OVCAR-3 ovarian
RXF 393 renal = tested on: RXF 393 renal
HCC-2998 colon = tested on: HCC-2998 colon
SNB-75 CNS = tested on: SNB-75 CNS
UO-31 renal = tested on: UO-31 renal
LOX IMVI melanoma = tested on: LOX IMVI melanoma
MCF7 breast = tested on: MCF7 breast
SN12C renal = tested on: SN12C renal
SF-268 CNS = tested on: SF-268 CNS
NCI-H23 lung = tested on: NCI-H23 lung
NCI-H226 lung = tested on: NCI-H226 lung
UACC-257 melanoma = tested on: UACC-257 melanoma
NCI-H460 lung = tested on: NCI-H460 lung
SK-OV-3 ovarian = tested on: SK-OV-3 ovarian
786-0 renal = tested on: 786-0 renal
A549 NSCLC = tested on: A549 NSCLC
MOLT-4 leukemia = tested on: MOLT-4 leukemia
NCI-H522 lung = tested on: NCI-H522 lung
SK-MEL-2 melanoma = tested on: SK-MEL-2 melanoma
HS 578T breast = tested on: HS 578T breast
TK-10 renal = tested on: TK-10 renal
KM12 colon = tested on: KM12 colon
SF-539 CNS = tested on: SF-539 CNS
SR leukemia = tested on: SR leukemia
EKVX NSCLC = tested on: EKVX NSCLC
MDA-N = tested on: MDA-N
SF-295 CNS = tested on: SF-295 CNS
MDA-MB-435 = tested on: MDA-MB-435
RPMI-8226 leukemia = tested on: RPMI-8226 leukemia
HCT-116 colon = tested on: HCT-116 colon
CAKI-1 renal = tested on: CAKI-1 renal
SW-620 colon = tested on: SW-620 colon
HOP-92 NSCLC = tested on: HOP-92 NSCLC
BT-549 breast = tested on: BT-549 breast
HCT-15 colon = tested on: HCT-15 colon
SK-MEL-28 melanoma = tested on: SK-MEL-28 melanoma
MDA-MB-231 breast = tested on: MDA-MB-231 breast
SK-MEL-5 melanoma = tested on: SK-MEL-5 melanoma
MALME-3M melanoma = tested on: MALME-3M melanoma

Compound: O=c1[nH]nc(-c2ccccc2)n1/N=C\CC/C=N\n1c(-c2ccccc2)n[nH]c1=O
- TGI (T-47D breast): 99 µM
- TGI (U251 CNS): > 100 µM
- TGI (SNB-19 CNS): > 100 µM
- TGI (NCI/ADR-RES ovarian): 96.9 µM
- TGI (HOP-62 NSCLC): 98.7 µM
- TGI (K-562 leukemia): > 100 µM
- TGI (PC-3 prostate): > 77.5 µM
- TGI (IGROV1 ovarian): > 85.2 µM
- TGI (COLO 205 colon): > 100 µM
- TGI (OVCAR-4 ovarian): > 100 µM
- TGI (M14 melanoma): 47.1 µM
- TGI (DU-145 prostate): > 100 µM
- TGI (UACC-62 melanoma): 43.5 µM
- TGI (OVCAR-5 ovarian): > 100 µM
- TGI (HT29 colon): 42.5 µM
- TGI (OVCAR-8 ovarian): > 86.9 µM
- TGI (ACHN renal): > 100 µM
- TGI (HL-60(TB) leukemia): > 100 µM
- TGI (OVCAR-3 ovarian): 51.8 µM
- TGI (RXF 393 renal): > 100 µM
- TGI (HCC-2998 colon): > 100 µM
- TGI (SNB-75 CNS): > 100 µM
- TGI (UO-31 renal): > 100 µM
- TGI (LOX IMVI melanoma): 27.1 µM
- TGI (MCF7 breast): > 92.2 µM
- TGI (SN12C renal): 47 µM
- TGI (SF-268 CNS): > 71 µM
- TGI (NCI-H23 lung): 21.7 µM
- TGI (NCI-H226 lung): > 72.2 µM
- TGI (UACC-257 melanoma): > 100 µM
- TGI (NCI-H460 lung): > 74.5 µM
- TGI (SK-OV-3 ovarian): > 100 µM
- TGI (786-0 renal): 75.9 µM
- TGI (A549 NSCLC): > 100 µM
- TGI (MOLT-4 leukemia): > 31.6 µM
- TGI (NCI-H522 lung): > 100 µM
- TGI (SK-MEL-2 melanoma): 50.9 µM
- TGI (HS 578T breast): > 83.7 µM
- TGI (TK-10 renal): > 100 µM
- TGI (KM12 colon): > 100 µM
- TGI (SF-539 CNS): > 69.5 µM
- TGI (SR leukemia): > 94.8 µM
- TGI (EKVX NSCLC): > 100 µM
- TGI (MDA-N): 44.3 µM
- TGI (SF-295 CNS): > 100 µM
- TGI (MDA-MB-435): 60.8 µM
- TGI (RPMI-8226 leukemia): 99.8 µM
- TGI (HCT-116 colon): > 66.7 µM
- TGI (CAKI-1 renal): > 100 µM
- TGI (SW-620 colon): > 100 µM
- TGI (HOP-92 NSCLC): 84.6 µM
- TGI (BT-549 breast): 60.9 µM
- TGI (HCT-15 colon): 49.9 µM
- TGI (SK-MEL-28 melanoma): > 54.6 µM
- TGI (MDA-MB-231 breast): > 81.4 µM
- TGI (SK-MEL-5 melanoma): > 56 µM
- TGI (MALME-3M melanoma): 72.4 µM
